# Assay results as given in patent US9695155B2, “Herbicidal substituted pyrimidinyloxy benzene compounds” (E. I. DU PONT DE NEMOURS AND COMPANY, priority 2013, dated 2017).
# Tests used:
# [1] = tested on: wheat; test: Test A postemergence; assay type: in vivo, Triticum aestivum
# In short: (§1)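 Compounds in non-phytotoxic solvent with surfactant applied as soil spray preemergence, or postemergence to plants 2-10 cm at one- to two-leaf stage, in loam/sand. After approximately 10 days in greenhouse, injury rated visually versus untreated controls, 0 (no effect) to 100 (complete control).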
# [2] = tested on: large (Lg) crabgrass; test: Test A preemergence; assay type: in vivo, Digitaria sanguinalis; details: for Crabgrass, Large plant response rating: 500 g ai/ha
# In short: as §1
# [3] = tested on: velvetleaf; test: Test A postemergence; assay type: in vivo, Abutilon theophrasti
# In short: as §1
# [4] = tested on: large (Lg) crabgrass; test: Test A postemergence; assay type: in vivo, Digitaria sanguinalis
# In short: as §1
# [5] = tested on: giant foxtail; test: Test A preemergence; assay type: in vivo, Setaria faberii; details: for Foxtail, Giant plant response rating: 500 g ai/ha
# In short: as §1
# [6] = tested on: giant foxtail; test: Test A postemergence; assay type: in vivo, Setaria faberii
# In short: as §1
# [7] = tested on: barnyardgrass; test: Test B flooded paddy test; assay type: in vivo, Echinochloa crus-galli; details: Flood, 250 g ai/ha; 0 to 100 scale where 0 is no effect and 100 is complete control
# In short: (§2)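 Compound added straight to paddy water, with pots kept flooded 3 cm above soil, on plants grown to the 2-leaf stage. Visual scoring 0-100 (100 = complete control) against untreated controls after 13 to 15 greenhouse days.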
# [8] = tested on: morningglory; test: Test A postemergence; assay type: in vivo, Ipomoea spp.
# In short: as §1
# [9] = tested on: Heteranthera limosa; test: Test B flooded paddy test; assay type: in vivo; details: Flood, 250 g ai/ha; 0 to 100 scale where 0 is no effect and 100 is complete control
# In short: as §2
# [10] = tested on: velvetleaf; test: Test A preemergence; assay type: in vivo, Abutilon theophrasti; details: for Velvetleaf plant response rating: 500 g ai/ha
# In short: as §1
# [11] = tested on: barnyardgrass; test: Test A preemergence; assay type: in vivo, Echinochloa crus-galli; details: for Barnyardgrass plant response rating: 500 g ai/ha
# In short: as §1
# [12] = tested on: corn; test: Test A preemergence; assay type: in vivo, Zea mays; details: for Corn plant response rating: 500 g ai/ha
# In short: as §1
# [13] = tested on: pigweed; test: Test A postemergence; assay type: in vivo, Amaranthus retroflexus
# In short: as §1
# [14] = tested on: sedge, umbrella; test: Test C flooded paddy test; assay type: in vivo, Cyperus difformis; details: Flood, scale 0 to 100 (0 no effect, 100 complete control), 13 to 15 days
# In short: (§3)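 Under a constant 3 cm flood, test compounds went directly into the paddy water. Following 13 to 15 days of greenhouse growth, treated species and controls were compared by eye.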
# [15] = tested on: morningglory; test: Test A preemergence; assay type: in vivo, Ipomoea spp.; details: for Morningglory plant response rating: 500 g ai/ha
# In short: as §1
# [16] = tested on: sedge, umbrella; test: Test B flooded paddy test; assay type: in vivo, Cyperus difformis; details: Flood, 250 g ai/ha; 0 to 100 scale where 0 is no effect and 100 is complete control
# In short: as §2
# [17] = tested on: rice; test: Test C flooded paddy test; assay type: in vivo, Oryza sativa; details: Flood, scale 0 to 100 (0 no effect, 100 complete control), 13 to 15 days
# In short: as §3
# [18] = tested on: corn; test: Test A postemergence; assay type: in vivo, Zea mays
# In short: as §1
# [19] = tested on: wheat; test: Test A preemergence; assay type: in vivo, Triticum aestivum; details: for Wheat plant response rating: 500 g ai/ha
# In short: as §1
# [20] = tested on: barnyardgrass; test: Test A postemergence; assay type: in vivo, Echinochloa crus-galli
# In short: as §1
# [21] = tested on: ducksalad; test: Test C flooded paddy test; assay type: in vivo, Heteranthera limosa; details: Flood, scale 0 to 100 (0 no effect, 100 complete control), 13 to 15 days
# In short: as §3
# [22] = tested on: pigweed; test: Test A preemergence; assay type: in vivo, Amaranthus retroflexus; details: for Pigweed plant response rating: 500 g ai/ha
# In short: as §1
# [23] = tested on: barnyardgrass; test: Test C flooded paddy test; assay type: in vivo, Echinochloa crus-galli; details: Flood, scale 0 to 100 (0 no effect, 100 complete control), 13 to 15 days
# In short: as §3
# [24] = tested on: rice; test: Test B flooded paddy test; assay type: in vivo, Oryza sativa; details: Flood, 250 g ai/ha; 0 to 100 scale where 0 is no effect and 100 is complete control
# In short: as §2
# [25] = 125 g ai/ha, 0 to 100 scale where 0 is no effect and 100 is complete control
# [26] = 500 g ai/ha, 0 to 100 scale, 0 no effect, 100 complete control
# [27] = 0 to 100 scale, 0 no effect, 100 complete control, approx. 10 days
# [28] = 500 g ai/ha, 0 to 100 scale where 0 is no effect and 100 is complete control
# [29] = 0 to 100 scale where 0 is no effect and 100 is complete control
smiles,measurement,setting,value
Cc1ccc(Oc2ncc(Cl)cn2)c(-n2cc(Br)cn2)c1 [Compound 40],"Plant response rating, Wheat",[1]; [25],0
same,"Plant response rating, Wheat",[1]; [26],0
same,"Plant response rating, Crabgrass, Large",[2]; [25],60
same,"Crabgrass, Large plant response rating",[2]; [27],80
same,"Plant response rating, Velvetleaf",[3]; [25],100
same,"Plant response rating, Velvetleaf",[3]; [26],100
same,"Plant response rating, Crabgrass, Large",[4]; [25],50
same,"Plant response rating, Crabgrass, Large",[4]; [26],70
same,"Plant response rating, Foxtail, Giant",[5]; [25],10
same,"Foxtail, Giant plant response rating",[5]; [27],60
same,"Plant response rating, Foxtail, Giant",[6]; [25],10
same,"Plant response rating, Foxtail, Giant",[6]; [26],60
same,"Plant response rating, Barnyardgrass",[7],20
same,"Plant response rating, Morningglory",[8]; [25],70
same,"Plant response rating, Morningglory",[8]; [26],100
same,"Plant response rating, Ducksalad",[9],80
same,"Plant response rating, Velvetleaf",[10]; [25],50
same,Velvetleaf plant response rating,[10]; [27],70
same,"Plant response rating, Barnyardgrass",[11]; [25],40
same,Barnyardgrass plant response rating,[11]; [27],50
same,"Plant response rating, Corn",[12]; [25],0
same,Corn plant response rating,[12]; [27],0
same,"Plant response rating, Pigweed",[13]; [25],40
same,"Plant response rating, Pigweed",[13]; [26],60
same,"Plant response rating, Sedge, Umbrella",[14]; 31 g ai/ha,50
same,"Plant response rating, Sedge, Umbrella",[14]; 62 g ai/ha,75
same,"Plant response rating, Sedge, Umbrella",[14]; 125 g ai/ha,75
same,"Plant response rating, Sedge, Umbrella",[14]; 250 g ai/ha,75
same,"Plant response rating, Morningglory",[15]; [25],0
same,Morningglory plant response rating,[15]; [27],0
same,"Plant response rating, Sedge, Umbrella",[16],80
same,"Plant response rating, Rice",[17]; 31 g ai/ha,0
same,"Plant response rating, Rice",[17]; 62 g ai/ha,0
same,"Plant response rating, Rice",[17]; 125 g ai/ha,0
same,"Plant response rating, Rice",[17]; 250 g ai/ha,0
same,"Plant response rating, Corn",[18]; [25],0
same,"Plant response rating, Corn",[18]; [26],0
same,"Plant response rating, Wheat",[19]; [25],0
same,Wheat plant response rating,[19]; [27],0
same,"Plant response rating, Barnyardgrass",[20]; [25],0
same,"Plant response rating, Barnyardgrass",[20]; [26],20
same,"Plant response rating, Ducksalad",[21]; 31 g ai/ha,0
same,"Plant response rating, Ducksalad",[21]; 62 g ai/ha,0
same,"Plant response rating, Ducksalad",[21]; 125 g ai/ha,40
same,"Plant response rating, Ducksalad",[21]; 250 g ai/ha,60
same,"Plant response rating, Pigweed",[22]; [25],0
same,Pigweed plant response rating,[22]; [27],50
same,"Plant response rating, Barnyardgrass",[23]; 31 g ai/ha,0
same,"Plant response rating, Barnyardgrass",[23]; 62 g ai/ha,0
same,"Plant response rating, Barnyardgrass",[23]; 125 g ai/ha,15
same,"Plant response rating, Barnyardgrass",[23]; 250 g ai/ha,15
same,"Plant response rating, Rice",[24],15
FC(F)c1cccc(Oc2ncc(Br)cn2)c1-n1cc(Br)cn1 [Compound 231],Wheat plant response rating,[1]; [25],20
same,"Plant response rating, Wheat",[1]; [28],50
same,"Crabgrass, Large plant response rating (0 to 100 scale)",[2]; 125 g ai/ha,90
same,"Crabgrass, Large plant response rating",[2]; [29],100
same,Velvetleaf plant response rating,[3]; [25],100
same,"Plant response rating, Velvetleaf",[3]; [28],100
same,"Crabgrass, Large plant response rating",[4]; [25],70
same,"Plant response rating, Crabgrass, Large",[4]; [28],90
same,"Foxtail, Giant plant response rating (0 to 100 scale)",[5]; 125 g ai/ha,90
same,"Foxtail, Giant plant response rating",[5]; [29],100
same,"Foxtail, Giant plant response rating",[6]; [25],70
same,"Plant response rating, Foxtail, Giant",[6]; [28],90
same,"Plant response rating, Barnyardgrass",[7],20
same,Morningglory plant response rating,[8]; [25],30
same,"Plant response rating, Morningglory",[8]; [28],90
same,"Plant response rating, Ducksalad",[9],80
same,Velvetleaf plant response rating (0 to 100 scale),[10]; 125 g ai/ha,0
same,Velvetleaf plant response rating,[10]; [29],100
same,"Barnyardgrass plant response rating (0 to 100 scale, 0 is no effect, 100 is complete control)",[11]; 125 g ai/ha,20
same,Barnyardgrass plant response rating,[11]; [29],100
same,Corn plant response rating (0 to 100 scale),[12]; 125 g ai/ha,0
same,Corn plant response rating,[12]; [29],20
same,Pigweed plant response rating,[13]; [25],100
same,"Plant response rating, Pigweed",[13]; [28],100
same,"Plant response rating, Sedge, Umbrella",[14]; 31 g ai/ha,0
same,"Plant response rating, Sedge, Umbrella",[14]; 62 g ai/ha,50
same,"Plant response rating, Sedge, Umbrella",[14]; 125 g ai/ha,70
same,"Plant response rating, Sedge, Umbrella",[14]; 250 g ai/ha,80
same,Morningglory plant response rating (0 to 100 scale),[15]; 125 g ai/ha,0
same,Morningglory plant response rating,[15]; [29],30
same,"Plant response rating, Sedge, Umbrella",[16],80
same,"Plant response rating, Rice",[17]; 31 g ai/ha,0
same,"Plant response rating, Rice",[17]; 62 g ai/ha,0
same,"Plant response rating, Rice",[17]; 125 g ai/ha,0
same,"Plant response rating, Rice",[17]; 250 g ai/ha,0
same,Corn plant response rating,[18]; [25],20
same,"Plant response rating, Corn",[18]; [28],90
same,Wheat plant response rating (0 to 100 scale),[19]; 125 g ai/ha,0
same,Wheat plant response rating,[19]; [29],20
same,Barnyardgrass plant response rating,[20]; [25],40
same,"Plant response rating, Barnyardgrass",[20]; [28],90
same,"Plant response rating, Ducksalad",[21]; 31 g ai/ha,0
same,"Plant response rating, Ducksalad",[21]; 62 g ai/ha,30
same,"Plant response rating, Ducksalad",[21]; 125 g ai/ha,70
same,"Plant response rating, Ducksalad",[21]; 250 g ai/ha,75
same,Pigweed plant response rating (0 to 100 scale),[22]; 125 g ai/ha,90
same,Pigweed plant response rating,[22]; [29],100
same,"Plant response rating, Barnyardgrass",[23]; 31 g ai/ha,0
same,"Plant response rating, Barnyardgrass",[23]; 62 g ai/ha,0
same,"Plant response rating, Barnyardgrass",[23]; 125 g ai/ha,0
same,"Plant response rating, Barnyardgrass",[23]; 250 g ai/ha,0
same,"Plant response rating, Rice",[24],30
